Reference: patent US11584755B2 (IDEAYA BIOSCIENCES, INC., priority 2017, dated 2023)

target: hFEN1 (Homo sapiens (Human), UniProt P39748); test: Enzymatic IC50 assay, FAM-labeled DNA oligomer substrate, fluorescence intensity (FEN1); assay type: biochemical; settings: hFEN1 70 pM, substrate 100 nM, reaction time 20 minutes, 23° C.
Description: FEN1, EXO1 or XPG enzyme was incubated with compound or vehicle (DMSO) and the FAM-labeled DNA oligomer substrate in a microtiter plate. The stop buffer contains EDTA to stop the enzymatic reaction. The plate is read for fluorescence intensity. The high control (DMSO) with high fluorescence intensity represents no inhibition of enzymatic reaction while the low control (10 μM) with low fluorescence intensity represents full inhibition of enzymatic reaction.
• FEN1 • hFEN1: 70 pM • Substrate: 100 nM • Reaction time: 20 minutes • EXO1 • hEXO1: 6 nM, Isoforml • Substrate: 30 nM • Reaction time: 60 minutes • XPG • hXPG: 100 nM • Substrate: 100 nM • Reaction time: 120 minutes
Annealing Buffer: 50 mM Tris-HCl, 50 mM NaCl, 1 mM DTT Assay buffer: 50 mM Tris-HCl pH 8.0, 10 mM MgCl2, 0.01% BSA, 1 mM DTT Stop buffer: 50 mM EDTA in assay buffer Temperature: 23° C. Total volume: 40 μl Controls: • 0% inhibition control: DMSO • 100% inhibition control: 10 μM (final) 5-chloro-3-hydroxy-1,3-dihydroquinazoline-2,4-dione Enzyme Reaction and Detection: • 1. Prepare 25 μM intermediate stock of the substrate by diluting SEQ ID NO:1, SEQ ID NO:2, and SEQ ID NO:3 in annealing buffer, in a PCR tube. • 2. Place the PCR tube on a heat block, heat at 95° C. for 3 minutes, then drop in 0.2° C. increments over 2 minutes, stopping at 25° C. • 3. Remove the tube and let the tube cool at room temperature. • 4. Transfer 10 μL of 3× final concentration test compounds or DMSO to the appropriate wells of a microtiter plate. • 5. Transfer 10 μL of 3× final concentration enzyme in assay buffer or assay buffer alone to the appropriate wells. • 6. Incubate the plate at room temperature for 15 minutes. • 7. Transfer 10 μL of 3× substrate in assay buffer to all the test wells. • 8. Incubate the plate at room temperature for prescribed reaction time. • 9. Centrifuge the plate at 1000 rpm for 1 minute. • 10. Transfer 10 μL of stop buffer to all the test wells. • 11. Centrifuge the plate at 1000 rpm for 1 minute. • 12. Read the plate on a plate reader.

Sequence of hFEN1 (P39748 whole entry): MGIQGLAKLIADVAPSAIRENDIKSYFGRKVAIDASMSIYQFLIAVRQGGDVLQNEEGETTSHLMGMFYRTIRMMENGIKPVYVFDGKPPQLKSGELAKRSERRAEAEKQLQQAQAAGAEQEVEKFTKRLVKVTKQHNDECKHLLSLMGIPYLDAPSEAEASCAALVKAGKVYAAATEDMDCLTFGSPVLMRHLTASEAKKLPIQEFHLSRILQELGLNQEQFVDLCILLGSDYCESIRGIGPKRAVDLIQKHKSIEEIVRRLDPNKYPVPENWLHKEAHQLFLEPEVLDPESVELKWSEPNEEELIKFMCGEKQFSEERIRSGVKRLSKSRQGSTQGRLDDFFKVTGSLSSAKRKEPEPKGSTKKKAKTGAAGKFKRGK

Compound | IC50 [µM]
O=C(O)c1c(O)c(=O)n(CC2COc3ccccc3O2)c2ccsc12 (stereo not drawn) [Example 13, 4-(2,3-dihydro-1,4-benzodioxin-3-ylmethyl)-6-hydroxy-5-oxo-thieno[3,2-b]pyridine-7-carboxylic acid] | < 0.2
Cc1ncc(Cn2c(=O)c(O)c(C(=O)O)c3sccc32)o1 [Example 95, 6-hydroxy-4-[(2-methyloxazol-5-yl)methyl]-5-oxo-4,5-dihydrothieno[3,2-b]pyridine-7-carboxylic acid] | 0.25 to 0.75
O=C(O)c1c(O)c(=O)n(CC2CCCOC2)c2ccsc12 (stereo not drawn) [Example 79, 6-hydroxy-5-oxo-4-[(tetrahydro-2H-pyran-3-yl)methyl]-4,5-dihydrothieno[3,2-b]pyridine-7-carboxylic acid] | 2.25 to 10
CC(C)(C)OC(=O)Nc1ccc(Cn2c(=O)c(O)c(C(=O)O)c3sccc32)cc1 [Example 15, 4-(4-((tert-butoxycarbonyl)amino)benzyl)-6-hydroxy-5-oxo-4,5-dihydrothieno[3,2-b]pyridine-7-carboxylic acid] | < 0.2
COc1cc(-c2ccc(Cn3c(=O)c(O)c(C(=O)O)c4sccc43)cc2)ccn1 [Example 151, 6-hydroxy-4-(4-(2-methoxypyridin-4-yl)benzyl)-5-oxo-4,5-dihydrothieno[3,2-b]pyridine-7-carboxylic acid] | 0.25 to 0.75
O=C(O)c1c(O)c(=O)n(Cc2ncn(-c3ccccc3)n2)c2ccsc12 [Example 20, 6-hydroxy-5-oxo-4-[(1-phenyl-1H-1,2,4-triazol-3-yl)methyl]-4,5-dihydrothieno[3,2-b]pyridine-7-carboxylic acid] | 0.25 to 0.75
O=C(O)c1c(O)c(=O)n(CC2CCCO2)c2ccsc12 (stereo not drawn) [Example 8, 6-hydroxy-5-oxo-4-(tetrahydrofuran-2-ylmethyl)thieno[3,2-b]pyridine-7-carboxylic acid] | 0.75 to 2.25
O=C(O)c1c(O)c(=O)n(CC2CCOCC2)c2ccsc12 [Example 69, 6-hydroxy-5-oxo-4-[(tetrahydro-2H-pyran-4-yl)methyl]-4,5-dihydrothieno[3,2-b]pyridine-7-carboxylic acid] | 2.25 to 10
O=C(O)c1c(O)c(=O)n(CC2COCCO2)c2ccsc12 (stereo not drawn) [Example 74, 4-((1,4-dioxan-2-yl)methyl)-6-hydroxy-5-oxo-4,5-dihydrothieno[3,2-b]pyridine-7-carboxylic acid] | 2.25 to 10
Cn1nccc1Cn1cc(Cn2c(=O)c(O)c(C(=O)O)c3sccc32)cn1 [Example 124, 6-hydroxy-4-({1-[(1-methyl-1H-pyrazol-5-yl)methyl]-1H-pyrazol-4-yl}methyl)-5-oxo-4,5-dihydrothieno[3,2-b]pyridine-7-carboxylic acid] | < 0.2
CC(=O)Nc1cc(Cn2c(=O)c(O)c(C(=O)O)c3sccc32)ccc1Cl [Example 65, 4-(3-acetamido-4-chlorobenzyl)-6-hydroxy-5-oxo-4,5-dihydrothieno[3,2-b]pyridine-7-carboxylic acid] | 0.25 to 0.75
Cc1nn(C)cc1Cn1cc(Cn2c(=O)c(O)c(C(=O)O)c3sccc32)cn1 [Example 134, 4-({1-[(1,3-dimethyl-1H-pyrazol-4-yl)methyl]-1H-pyrazol-4-yl}methyl)-6-hydroxy-5-oxo-4,5-dihydrothieno[3,2-b]pyridine-7-carboxylic acid] | < 0.2
O=C(O)c1c(O)c(=O)n(Cc2ccc(Cl)c(Cl)c2)c2ccsc12 [Example 59, 4-(3,4-dichlorobenzyl)-6-hydroxy-5-oxo-4,5-dihydrothieno[3,2-b]pyridine-7-carboxylic acid] | 0.25 to 0.75
O=C(O)c1c(O)c(=O)n(Cc2cnn(CC3CCS(=O)(=O)CC3)c2)c2ccsc12 [Example 145] | 0.25 to 0.75
COc1ccc(Cn2c(=O)c(O)c(C(=O)O)c3sccc32)cc1NC(C)=O [Example 89, 4-(3-acetamido-4-methoxybenzyl)-6-hydroxy-5-oxo-4,5-dihydrothieno[3,2-b]pyridine-7-carboxylic acid] | 0.25 to 0.75
COc1ccc(-n2cc(Cn3c(=O)c(O)c(C(=O)O)c4sccc43)nn2)cc1 [Example 25, 6-hydroxy-4-{[1-(4-methoxyphenyl)triazol-4-yl]methyl}-5-oxo-thieno[3,2-b]pyridine-7-carboxylic acid] | < 0.2
O=C(O)c1c(O)c(=O)n(Cc2cnn(-c3ccc([N+](=O)[O-])cc3)c2)c2ccsc12 [Example 21, 6-hydroxy-4-{[1-(4-nitrophenyl)-1H-pyrazol-4-yl]methyl}-5-oxo-4,5-dihydrothieno[3,2-b]pyridine-7-carboxylic acid] | < 0.2
N#Cc1ccc(-n2cc(Cn3c(=O)c(O)c(C(=O)O)c4sccc43)cn2)cc1 [Example 110, 4-{[1-(4-cyanophenyl)-1H-pyrazol-4-yl]methyl}-6-hydroxy-5-oxo-4,5-dihydrothieno[3,2-b]pyridine-7-carboxylic acid] | < 0.2
Cc1nnc(Cn2c(=O)c(O)c(C(=O)O)c3sccc32)s1 [Example 94, 6-hydroxy-4-[(5-methyl-1,3,4-thiadiazol-2-yl)methyl]-5-oxo-4,5-dihydrothieno[3,2-b]pyridine-7-carboxylic acid] | 0.25 to 0.75
COc1ccc(Cn2c(=O)c(O)c(C(=O)O)c3sc(CC(C)C)cc32)cc1 [Example 157, 6-hydroxy-2-isobutyl-4-(4-methoxybenzyl)-5-oxo-4,5-dihydrothieno[3,2-b]pyridine-7-carboxylic acid] | 2.25 to 10
O=C(O)c1c(O)c(=O)n(Cc2cnn(Cc3cncs3)c2)c2ccsc12 [Example 123, 6-hydroxy-5-oxo-4-{[1-(thiazol-5-ylmethyl)-1H-pyrazol-4-yl]methyl}-4,5-dihydrothieno[3,2-b]pyridine-7-carboxylic acid] | < 0.2
Nc1ccc(Cn2c(=O)c(O)c(C(=O)O)c3sccc32)cc1Cl [Example 73, 4-(4-amino-3-chlorobenzyl)-6-hydroxy-5-oxo-4,5-dihydrothieno[3,2-b]pyridine-7-carboxylic acid] | 0.25 to 0.75
O=C(O)c1c(O)c(=O)n(Cc2cnn(Cc3cncnc3)c2)c2ccsc12 [Example 135, 6-hydroxy-5-oxo-4-{[1-(pyrimidin-5-ylmethyl)-1H-pyrazol-4-yl]methyl}-4,5-dihydrothieno[3,2-b]pyridine-7-carboxylic acid] | < 0.2
CS(=O)(=O)Nc1ccccc1-n1cc(Cn2c(=O)c(O)c(C(=O)O)c3sccc32)cn1 [Example 108, 6-hydroxy-4-{[1-(2-(methylsulfonamido)phenyl]-1H-pyrazol-4-yl}methyl)-5-oxo-4,5-dihydrothieno[3,2-b]pyridine-7-carboxylic acid] | 0.25 to 0.75
CS(=O)(=O)COc1ccc(Cn2c(=O)c(O)c(C(=O)O)c3sccc32)cc1 [Example 153, 6-hydroxy-4-{4-[(methylsulfonyl)methoxy]benzyl}-5-oxo-4,5-dihydrothieno[3,2-b]pyridine-7-carboxylic acid] | 0.25 to 0.75
CC(=O)Nc1ccccc1-n1cc(Cn2c(=O)c(O)c(C(=O)O)c3sccc32)cn1 [Example 109, 4-{[1-(2-acetamidophenyl)-1H-pyrazol-4-yl]methyl}-6-hydroxy-5-oxo-4,5-dihydrothieno[3,2-b]pyridine-7-carboxylic acid] | 0.75 to 2.25
COc1cccc(Cn2c(=O)c(O)c(C(=O)O)c3sccc32)c1 [Example 52, 6-hydroxy-4-(3-methoxybenzyl)-5-oxo-4,5-dihydrothieno[3,2-b]pyridine-7-carboxylic acid] | 0.25 to 0.75
